Assay results as given in US6852731B2, “Antiviral compounds” (Pfizer, priority 2002, dated 2005).

| Compound | melting point |
| --- | --- |
| COCCOCc1c(CN(C)C[C@@H](O)c2ccco2)sc2c(=O)c(C(=O)NCc3ccc(Cl)cc3)cn(C)c12 [Example 74, N-(4-Chlorobenzyl)-2-{[[(2R)-2-(2-furyl)-2-hydroxyethyl](methyl)amino]methyl}-3-[(2-methoxyethoxy)methyl]-4-methyl-7-oxo-4,7-dihydrothieno[3,2-b]pyridine-6-carboxamide] | 146 to 147 °C |
| CN(Cc1sc2c(=O)c(C(=O)NCc3ccc(Cl)cc3)cn(C)c2c1CO)CC(O)c1cnccn1 (stereo not drawn) [Example 84, N-(4-Chlorobenzyl)-3-(hydroxymethyl)-2-{[(2-hydroxy-2-pyrazin-2-ylethyl)(methyl)amino]methyl}-4-methyl-7-oxo-4,7-dihydrothieno[3,2-b]pyridine-6-carboxamide] | 211 to 213 °C |
| C=CCOCc1c(CN(C)C[C@@H](O)c2ccccn2)sc2c(=O)c(C(=O)NCc3ccc(Cl)cc3)cn(C)c12 [Example 81, 3-[(Allyloxy)methyl]-N-(4-chlorobenzyl)-2-{[[(2R)-2-hydroxy-2-pyridin-2-ylethyl](methyl)amino]methyl}-4-methyl-7-oxo-4,7-dihydrothieno[3,2-b]pyridine-6-carboxamide] | 125 to 127 °C |
| COCCOCc1c(CN(C)CC(O)c2ccc(C#N)s2)sc2c(=O)c(C(=O)NCc3ccc(Cl)cc3)cn(C)c12 (stereo not drawn) [Example 80, N-(4-Chlorobenzyl)-2-{[[2-(5-cyanothien-2-yl)-2-hydroxyethyl](methyl)amino]methyl}-3-[(2-methoxyethoxy)methyl]-4-methyl-7-oxo-4,7-dihydrothieno[3,2-b]pyridine-6-carboxamide] | 163 to 164 °C |
| COCCOCc1c(CN(C)CC(O)c2cccc(OC)c2)sc2c(=O)c(C(=O)NCc3ccc(Cl)cc3)cn(C)c12 (stereo not drawn) [Example 73, N-(4-Chlorobenzyl)-2-{[[2-hydroxy-2-(3-methoxyphenyl)ethyl](methyl)amino]methyl}-3-[(2-methoxyethoxy)methyl]-4-methyl-7-oxo-4,7-dihydrothieno[3,2-b]pyridine-6-carboxamide] | 135 to 138 °C |
| COCCOCc1c(CN(C)CC(O)c2ccccn2)sc2c(=O)c(C(=O)NCc3ccc(Cl)cc3)cn(C)c12 (stereo not drawn) [Example 76, N-(4-Chlorobenzyl)-2-{[(2-hydroxy-2-pyridin-2-ylethyl)(methyl)amino]methyl}-3-[(2-methoxyethoxy)methyl]-4-methyl-7-oxo-4,7-dihydrothieno[3,2-b]pyridine-6-carboxamide] | 150.5 to 152 °C |
| COCCOCc1c(CN(C)CC(O)c2cccnc2)sc2c(=O)c(C(=O)NCc3ccc(Cl)cc3)cn(C)c12 (stereo not drawn) [Example 72, N-(4-Chlorobenzyl)-2-{[(2-hydroxy-2-pyridin-3-ylethyl)(methyl)amino]methyl}-3-[(2-methoxyethoxy)methyl]-4-methyl-7-oxo-4,7-dihydrothieno[3,2-b]pyridine-6-carboxamide] | 129 to 132 °C |
| CN(Cc1sc2c(=O)c(C(=O)NCc3ccc(Cl)cc3)cn(C)c2c1COCC[Si](C)(C)C)CC(O)c1cnccn1 (stereo not drawn) | 154.9 to 155.5 °C |

Next, values leading:

| melting point | Compound |
| --- | --- |
| 165 to 168 °C | COc1cccc(C(O)CN(C)Cc2sc3c(=O)c(C(=O)NCc4ccc(Cl)cc4)cn(C)c3c2CO)c1 (stereo not drawn) [Example 86, N-(4-Chlorobenzyl)-2-{[[2-hydroxy-2-(3-methoxyphenyl)ethyl](methyl)amino]methyl}-3-(hydroxymethyl)-4-methyl-7-oxo-4,7-dihydrothieno[3,2-b]pyridine-6-carboxamide] |
| 167 to 169 °C | COCCOCc1c(CN(C)CC(O)c2c[nH]c3ccccc23)sc2c(=O)c(C(=O)NCc3ccc(Cl)cc3)cn(C)c12 (stereo not drawn) [Example 75, N-(4-Chlorobenzyl)-2-{[[2-hydroxy-2-(1H-indol-3-yl)ethyl](methyl)amino]methyl}-3-[(2-methoxyethoxy)methyl]-4-methyl-7-oxo-4,7-dihydrothieno[3,2-b]pyridine-6-carboxamide] |
| 196 to 198 °C | CN(Cc1sc2c(=O)c(C(=O)NCc3ccc(Cl)cc3)cn(C)c2c1CO)CC(O)c1ccc2ccccc2n1 (stereo not drawn) [Example 89, N-(4-Chlorobenzyl)-3-(hydroxymethyl)-2-{[(2-hydroxy-2-quinolin-2-ylethyl)(methyl)amino]methyl}-4-methyl-7-oxo-4,7-dihydrothieno[3,2-b]pyridine-6-carboxamide] |
| 146.5 to 147.5 °C | COCCOCc1c(CN(C)CC(O)c2ncccn2)sc2c(=O)c(C(=O)NCc3ccc(Cl)cc3)cn(C)c12 (stereo not drawn) [Example 77, N-(4-Chlorobenzyl)-2-{[(2-hydroxy-2-pyrimidin-2-ylethyl)(methyl)amino]methyl}-3-[(2-methoxyethoxy)methyl]-4-methyl-7-oxo-4,7-dihydrothieno[3,2-b]pyridine-6-carboxamide] |
| 188 to 190 °C | CN(Cc1sc2c(=O)c(C(=O)NCc3ccc(Cl)cc3)cn(C)c2c1CO)CC(O)c1ccc(C#N)s1 (stereo not drawn) [Example 85, N-(4-Chlorobenzyl)-2-{[[2-(5-cyanothien-2-yl)-2-hydroxyethyl](methyl)amino]methyl}-3-(hydroxymethyl)-4-methyl-7-oxo-4,7-dihydrothieno[3,2-b]pyridine-6-carboxamide] |
| 171 to 177 °C (dec.) | CN(Cc1sc2c(=O)c(C(=O)NCc3ccc(Cl)cc3)cn(C)c2c1CNS(C)(=O)=O)C[C@@H](O)c1ccccn1 [Example 92, N-(4-Chlorobenzyl)-2-{[[(2R)-2-hydroxy-2-pyridin-2-ylethyl](methyl)amino]methyl}-4-methyl-3-{[(methylsulfonyl)amino]methyl}-7oxo-4,7-dihydrothieno[3,2-b]pyridine-6-carboxamide] |
| 144 to 148 °C | CN(Cc1sc2c(=O)c(C(=O)NCc3ccc(Cl)cc3)cn(C)c2c1CN)C[C@@H](O)c1ccccn1 [Example 91, 3-(Aminomethyl)-N-(4-chlorobenzyl)-2-{[[(2R)-2-hydroxy-2-pyridin-2-ylethyl](methyl)amino]methyl}-4-methyl-7-oxo-4,7-dihydrothieno[3,2-b]pyridine-6-carboxamide] |
